The results in this text go back to patent US9028845B2, “Chimeric immunomodulatory compounds and methods of using the same-IV” (Dynavax Technologies Corporation, priority 2001, dated 2015).

“Also recorded” adds a separate entry of the source.

In this series the test system is human PBMCs. Description: Human PBMC cytokine response assay (IFN-γ and IFN-α in cell-free medium by ELISA), with or without cPLGA.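 For IFN-α (pg/ml) mean: 20 µg/mL compound for 24 hours.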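 For IFN-γ (pg/ml) mean: 20 µg/mL compound for 24 hours.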 The class given is cell-based. To be noted: for IFN-α (pg/ml) mean / IFN-γ (pg/ml) mean: mean of donors 110, 112, 119, 120; for IFN-α induction, in words: used alone; for immunomodulatory activity (IFN-γ / IFN-α secretion), in words: used alone (no cPLGA). A general note: In an ELISA, binding on a coated surface is turned into a signal by an enzyme label.

The mark [1] stands for this setting: Example 59, 0.8 ug/ml, donor 48.
The mark [2] stands for this setting: Example 59, 0.8 ug/ml, donor 177.
The mark [3] stands for this setting: Example 59, 0.8 ug/ml, donor 272.
Setting [4] is: Example 59, 0.8 ug/ml, donor 273.
Where [5] appears, read: Example 59, 0.8 ug/ml, mean of four donors.
[6] abbreviates: Example 59, 4 ug/ml, mean of four donors.
[7] abbreviates: Example 59, 20 ug/ml, donor 177.
Setting [8] is: Example 59, 20 ug/ml, donor 272.
[9] abbreviates: Example 59, 20 ug/ml, donor 273.
[10] abbreviates: Example 59, 20 ug/ml, mean of four donors.
[11] abbreviates: Table 24, mean of donors 28234-28237.
Where [12] appears, read: mean of donors 28185-28188, Table 15.

For “5′-TCGTTTT-3′-HEG-5′-TCGTTTT-3′-HEG-5′-TCGTTTT-3′ [Compound C-41]”, the IFN-α runs as follows: (Table 10, donor 28042) 0 pg/mL; (Table 10, donor 28043) 3 pg/mL; (Table 10, donor 28044) 23 pg/mL; (Table 10, donor 28045) 0 pg/mL; (donor 110, Table 14) 58 pg/mL; (donor 112, Table 14) 2 pg/mL. Further, the “IFN-α” value reads like this: (donor 119, Table 14) 182 pg/mL; (donor 120, Table 14) 6 pg/mL. Besides, the IFN-γ came out at 174 pg/mL (Table 10, donor 28042); 1075 pg/mL (Table 10, donor 28043); 841 pg/mL (Table 10, donor 28044); 45 pg/mL (Table 10, donor 28045); 512 pg/mL (donor 110, Table 14); 100 pg/mL (donor 112, Table 14). In addition, the “IFN-γ” value reads like this: (donor 119, Table 14) 32 pg/mL; (donor 120, Table 14) 32 pg/mL. Where the note is “Table 10, mean of donors”, the IFN-α mean is 7 pg/mL. Besides, the IFN-γ mean (Table 10, mean of donors) was found to be 534 pg/mL. Also, the “IFN-α (pg/ml) mean” value (Table 14) was found to be 62 pg/mL. Under “Table 14”, the “IFN-γ (pg/ml) mean” value amounted to 169 pg/mL.

As to “5′-TCGAACG-3′-HEG-5′-TCGAACG-3′-HEG-5′-TCGAACG-3′ [Compound C-50]”, the “IFN-α induction, in words” value is on record as “generated more IFN-α than CICs containing a 5′-TCGT-3′” and the “immunomodulatory activity (IFN-γ / IFN-α secretion), in words” value was “more active than other CG-containing CICs”. Further, for the setting “Table 10, donor 28042”, the IFN-α was 36 pg/mL and the IFN-γ is 1324 pg/mL. For the setting “Table 10, donor 28043”, the IFN-α stood at 137 pg/mL and the IFN-γ worked out at 1292 pg/mL. For the setting “Table 10, donor 28044”, the IFN-α was found to be 193 pg/mL and the IFN-γ came out at 509 pg/mL. Under “Table 10, donor 28045”, this substance had an IFN-α of 35 pg/mL and an IFN-γ of 192 pg/mL. Where the note is “Table 10, mean of donors”, this substance showed an IFN-α mean of 100 pg/mL and an IFN-γ mean of 829 pg/mL. Where the note is “donor 110, Table 14”, the “IFN-α” value is 716 pg/mL and the “IFN-γ” value was found to be 1096 pg/mL. Moreover, for the setting “donor 112, Table 14”, the “IFN-α” value stood at 84 pg/mL and the “IFN-γ” value was 264 pg/mL. Moreover, where the note is “donor 119, Table 14”, the “IFN-α” value worked out at 838 pg/mL and the “IFN-γ” value turned out to be 52 pg/mL. Besides, under “donor 120, Table 14”, the “IFN-α” value was found to be 636 pg/mL and the “IFN-γ” value was determined as 48 pg/mL. Also, where the note is “Table 14”, the “IFN-α (pg/ml) mean” value was 569 pg/mL and the “IFN-γ (pg/ml) mean” value is 365 pg/mL.

On to “5′-GsGs-3′-C3-5′-TCGTGC-3′-C3-5′-ATCGAT-3′-C3-5′-GCACGA-3′-C3-5′-GGsGsGsGsG-3′ (s = phosphorothioate linkages, otherwise linkages are phosphodiester) [Compound C-85]”, for which the IFN-α is 0 pg/mL (Table 11, donor 28042); 0 pg/mL (Table 11, donor 28043); 28 pg/mL (Table 11, donor 28044); 24 pg/mL (Table 11, donor 28045). For the same substance, the IFN-γ runs as follows: (Table 11, donor 28042) 17 pg/mL; (Table 11, donor 28043) 13 pg/mL; (Table 11, donor 28044) 315 pg/mL; (Table 11, donor 28045) 134 pg/mL. Further, the IFN-α mean (Table 11, mean of donors) was 13 pg/mL. Besides, under “Table 11, mean of donors”, the IFN-γ mean came to 120 pg/mL.

The substance “(5′-TCGACGT-HEG)2-glycerol-HEG-5′-ACTTAGAGGTTCAGTAGG-3′ (SEQ ID NO: 157) (DNA, all phosphorothioate, methylation of C not given here; Two heptamer DNA arms joined by HEG spacers and glycerol branching to the chain) [Compound C-202]” yielded an IFN-α under setting [1] of 830 pg/mL; an IFN-α under setting [2] of 102 pg/mL; an IFN-α under setting [3] of 102 pg/mL; an IFN-α under setting [4] of 102 pg/mL; an IFN-α (Example 59, 4 ug/ml, donor 48) of 2250 pg/mL; an IFN-α (Example 59, 4 ug/ml, donor 177) of 2482 pg/mL. The IFN-α was 1222 pg/mL (Example 59, 4 ug/ml, donor 272); 215 pg/mL (Example 59, 4 ug/ml, donor 273); 1901 pg/mL (Example 59, 20 ug/ml, donor 48); 2742 pg/mL under setting [7]; 612 pg/mL under setting [8]; 339 pg/mL under setting [9]. Moreover, the IFN-α mean reads like this: under setting [5], 284 pg/mL; under setting [6], 1542 pg/mL; under setting [10], 1399 pg/mL.

As to “(5′-TCGTCGA-3′-HEG)2-glycerol-HEG-5′-TCGTCGA-3′ (phosphodiester) [Compound C-93]”, the “immunomodulatory activity (IFN-γ / IFN-α secretion), in words” value is “inactive as CICs alone”. For the setting “Table 9, donor 28089”, the IFN-α worked out at 0 pg/mL and the IFN-γ stood at 0 pg/mL. Moreover, under “Table 9, donor 28090”, the IFN-α is 30 pg/mL and the IFN-γ came out at 0 pg/mL. Under “Table 9, donor 28098”, the IFN-α stood at 25 pg/mL and the IFN-γ stood at 0 pg/mL. For the setting “Table 9, donor 28099”, the IFN-α is 29 pg/mL and the IFN-γ came out at 3 pg/mL. For the setting “Table 9, mean of donors”, this substance showed an IFN-α mean of 21 pg/mL and an IFN-γ mean of 1 pg/mL. For the setting “Table 11, donor 28042”, this substance returned an IFN-α of 7 pg/mL and an IFN-γ of 8 pg/mL. Where the note is “Table 11, donor 28043”, the IFN-α was 3 pg/mL and the IFN-γ was 1 pg/mL. For the setting “Table 11, donor 28044”, this substance gave an IFN-α of 81 pg/mL and an IFN-γ of 41 pg/mL. Under “Table 11, donor 28045”, the IFN-α worked out at 61 pg/mL and the IFN-γ was found to be 17 pg/mL. Besides, under “Table 11, mean of donors”, the IFN-α mean is 38 pg/mL and the IFN-γ mean was determined as 17 pg/mL. Moreover, the “activity when formulated with cPLGA, in words” value (formulated with cPLGA) is on record as “significantly more active when formulated with cPLGA; also recorded: active only when formulated”.

Regarding “(5′-TCGACGT-HEG)2-glycerol-HEG-5′-CCTACTGAACCTCTAAGT-3′ (SEQ ID NO: 158) (DNA, all phosphorothioate, methylation of C not given here; Two heptamer DNA arms joined by HEG spacers and glycerol branching to the chain) [Compound C-203]”, the IFN-α by setting is: under setting [1], 102 pg/mL; under setting [2], 102 pg/mL; under setting [3], 102 pg/mL; under setting [4], 102 pg/mL; (Example 59, 4 ug/ml, donor 48) 691 pg/mL; (Example 59, 4 ug/ml, donor 177) 487 pg/mL. Besides, the IFN-α reads like this: (Example 59, 4 ug/ml, donor 272) 102 pg/mL; (Example 59, 4 ug/ml, donor 273) 102 pg/mL; (Example 59, 20 ug/ml, donor 48) 735 pg/mL; under setting [7], 681 pg/mL; under setting [8], 102 pg/mL; under setting [9], 102 pg/mL. Besides, the IFN-α mean runs as follows: under setting [5], 102 pg/mL; under setting [6], 346 pg/mL; under setting [10], 405 pg/mL.

Regarding “5′-ACGTTCG-3′-HEG-5′-TCGTCGA-3′-HEG-5′-AGATGAT-3′ [Compound C-57]”, the “immunomodulatory activity (IFN-γ / IFN-α secretion), in words” value is “somewhat more active than C-58”. Moreover, under “Table 13, donor 28156”, the IFN-α amounted to 5 pg/mL and the IFN-γ was 419 pg/mL. Where the note is “Table 13, donor 28157”, this substance gave an IFN-α of 52 pg/mL and an IFN-γ of 323 pg/mL. Moreover, under “Table 13, donor 28158”, the IFN-α turned out to be 61 pg/mL and the IFN-γ is 67 pg/mL. Where the note is “Table 13, donor 28159”, this substance returned an IFN-α of 42 pg/mL and an IFN-γ of 262 pg/mL. Further, where the note is “Table 13, mean of donors”, the IFN-α mean amounted to 40 pg/mL and the IFN-γ mean worked out at 268 pg/mL.

With “(5′-TCGTCGA-3′-HEG)2-glycerol-HEG-5′-AACGTTC-3′ [Compound C-96]”, the “IFN-α induction, in words” value is “induced more IFN-α relative to linear CICs with HEG spacers”. For the setting “Table 24, donor 28234”, the IFN-α stood at 16 pg/mL and the IFN-γ turned out to be 21 pg/mL. Where the note is “Table 24, donor 28235”, this substance gave an IFN-α of 120 pg/mL and an IFN-γ of 239 pg/mL. Where the note is “Table 24, donor 28236”, this substance yielded an IFN-α of 608 pg/mL and an IFN-γ of 354 pg/mL. Where the note is “Table 24, donor 28237”, this substance came in with an IFN-α of 993 pg/mL and an IFN-γ of 1396 pg/mL. Under setting [11], this substance showed an IFN-α mean of 434 pg/mL and an IFN-γ mean of 503 pg/mL. In addition, under “donor 28185, Table 15”, the “IFN-a” value was determined as 2550 pg/mL and the “IFN-g” value came out at 163 pg/mL. Also, where the note is “donor 28186, Table 15”, the “IFN-a” value is 446 pg/mL and the “IFN-g” value was 22 pg/mL. For the same substance, under “donor 28187, Table 15”, the “IFN-a” value worked out at 118 pg/mL and the “IFN-g” value was found to be 195 pg/mL. Further, under “donor 28188, Table 15”, the “IFN-a” value was determined as 40 pg/mL and the “IFN-g” value came to 12 pg/mL. In addition, under setting [12], the “IFN-a (pg/ml) mean” value was 788 pg/mL and the “IFN-g (pg/ml) mean” value turned out to be 98 pg/mL. Further, where the note is “mean ×2, Table 15”, the “IFN-a (pg/ml) ×2” value was 1577 pg/mL. In addition, the “IFN-g (pg/ml) ×4” value (mean ×4, Table 15) turned out to be 392 pg/mL.

As for “5′-TGACTGTGAAGGTTAGAGATGA-3′ (SEQ ID NO: 136) (listed as DNA, chemistry not fully specified) [Compound P-8, reference compound]”, the IFN-α is, setting by setting: (Table 13, donor 28156) 16 pg/mL; (Table 13, donor 28157) 9 pg/mL; (Table 13, donor 28158) 24 pg/mL; (Table 13, donor 28159) 8 pg/mL. Moreover, the IFN-γ (Table 13, donor 28156) worked out at 255 pg/mL; the IFN-γ (Table 13, donor 28157) is 20 pg/mL; the IFN-γ (Table 13, donor 28158) was 31 pg/mL; the IFN-γ (Table 13, donor 28159) amounted to 31 pg/mL. This substance also registered an IFN-α mean (Table 13, mean of donors) of 14 pg/mL. The substance also had an IFN-γ mean (Table 13, mean of donors) of 84 pg/mL.
